This is an account of results in PMC12153356, “An antisense oligomer conjugate with unpredicted bactericidal activity against Fusobacterium nucleatum” (mBio, 2025).

In the assay the test system is F. nucleatum subsp. nucleatum ATCC 23726 (FNN23). The assay is described as follows: CPP-TAMRA uptake by confocal laser scanning microscopy (CLSM). The note with it: 5 µM CPP-TAMRA, FNN23 10^8 CFU/mL in MHB, 37°C, 10, 30 and 60 min, 100 cells from four images, cytoplasmic signal. The assay is classed as cell-based, Fusobacterium nucleatum subsp. nucleatum ATCC 23726. From the text: To investigate the efficiency of different cell-penetrating peptides, we excluded a flow cytometry approach to quantify penetration efficiency because upon cell fixation, CPPs were reported to bind to cell membranes and remain attached even after multiple washes, which would result in a false-positive penetration signal in flow cytometry ([118]). Thus, we opted for a microscopy-based investigation with lower throughput but discrimination potential between membrane-associated and cytosolic signals. CPPs were coupled to the fluorophore 5(6)-carboxytetramethylrhodamine (TAMRA) by Peps4LS GmbH, and 200 µM stocks were prepared in house. […] The emission was detected at 685–795 nm for FM 4–64 and 570–620 nm for TAMRA. CLSM images were analyzed using ImageJ. To quantify CPP uptake, 100 cells were chosen out of four images per condition using the bright field image and analyzed for cytosolic TAMRA signal by excluding TAMRA-negative cells and TAMRA signal co-localized with the FM 4–64 signal.

Square brackets hold non-standard residues; d marks the D form. Peptide text beside a SMILES is read from it. * marks the point of attachment. 5TAMRA = CN(C)c1ccc2c(c1)Oc1cc(N(C)C)ccc1C21OC(=O)c2cc(C(=O)*)ccc21; Ahx = NCCCCCC(=O)O; βAla = NCCC(=O)O

As to `CN(C)c1ccc2c(c1)Oc1cc(N(C)C)ccc1C21OC(=O)c2cc(C(=O)N[C@@H](CCCNC(=N)N)C(=O)NCCCCCC(=O)N[C@@H](CCCNC(=N)N)C(=O)N[C@@H](CCCNC(=N)N)C(=O)NCCCCCC(=O)N[C@@H](CCCNC(=N)N)C(=O)N[C@@H](CCCNC(=N)N)C(=O)NCCCCCC(=O)N[C@@H](CCCNC(=N)N)C(=O)N[C@@H](CCCNC(=N)N)C(=O)NCCCCCC(=O)N[C@@H](CCCNC(=N)N)C(=O)NCCCCCC(=O)NCCC(=O)O)ccc21` [(RXR)4XB-TAMRA] (5TAMRA-R[Ahx]RR[Ahx]RR[Ahx]RR[Ahx]R[Ahx][βAla]-OH), the “TAMRA-positive cells (uptake efficiency)” value was 100%.
